Here are results for 13 molecules from patent publication US20160272626A1, “PYRAZINE DERIVATIVES” (HOFFMANN-LA ROCHE INC., priority 2012, published 2016).

Assay [1] addresses T1, rat TAAR1 (Rattus norvegicus, UniProt Q923Y9).
T1 construct: expressed in transfected cells; membrane preparation
The experiment in a line: Radioligand binding assay on rat TAAR1. The following applies: for Ki: rat TAAR1, HEK-293 membranes, second value of cell mouse/rat. Here is the method:
(§1) For the construction of expression plasmids the coding sequences of human, rat and mouse TAAR 1 were amplified from genomic DNA essentially as described by Lindemann et al.. The Expand High Fidelity PCR System (Roche Diagnostics) was used with 1.5 mM Mg^2+ and purified PCR products were cloned into pCR2.1-TOPO cloning vector (Invitrogen) following the instructions of the manufacturer. PCR products were subcloned into the pIRESneo2 vector (BD Clontech, Palo Alto, Calif.), and expression vectors were sequence verified before introduction in cell lines.
(§2) HEK293 cells (ATCC # CRL-1573) were cultured essentially as described by Lindemann et al. (2005). For the generation of stably transfected cell lines HEK293 cells were transfected with the pIRESneo2 expression plasmids containing the TAAR coding sequences (described above) with Lipofectamine 2000 (Invitrogen) according to the instructions of the manufacturer, and 24 hrs post transfection the culture medium was supplemented with 1 mg/ml G418 (Sigma, Buchs, Switzerland). After a culture period of about 10 d clones were isolated, expanded and tested for responsiveness to trace amines (all compounds purchased from Sigma) with the cAMP Biotrak Enzyme immunoassay (EIA) System (Amersham) following the non-acetylation EIA procedure provided by the manufacturer.
Radioligand Binding Assay on Rat TAAR1
(§3) Membrane Preparation and Radioligand Binding.
HEK-293 cells stably expressing rat TAAR1 were maintained at 37° C. and 5% CO2 in DMEM high glucose medium, containing fetal calf serum (10%, heat inactivated for 30 min at 56° C.), penicillin/streptomycin (1%), and 375 μg/ml geneticin (Gibco). Cells were released from culture flasks using trypsin/EDTA, harvested, washed twice with ice-cold PBS (without Ca^2+ and Mg^2+), pelleted at 1,000 rpm for 5 min at 4° C., frozen and stored at −80° C. Frozen pellets were suspended in 20 ml HEPES-NaOH (20 mM, pH 7.4) containing 10 mM EDTA and homogenized with a Polytron (PT 6000, Kinematica) at 14,000 rpm for 20 s. The homogenate was centrifuged at 48,000×g for 30 min at 4° C. Subsequently, the supernatant was removed and discarded, and the pellet resuspended in 20 ml HEPES-NaOH (20 mM, pH 7.4) containing 0.1 mM EDTA using the Polytron (20 s at 14,000 rpm). This procedure was repeated and the final pellet resuspended in HEPES-NaOH containing 0.1 mM EDTA and homogenized using the Polytron. Typically, aliquots of 2 ml membrane portions were stored at −80° C. With each new membrane batch the dissociation constant (Kd) was determined via a saturation curve. […] Nonspecific binding was defined as the amount of ^3[H]—(S)-4-[(ethyl-phenyl-amino)-methyl]-4,5-dihydro-oxazol-2-ylamine bound in the presence of 10 μM unlabeled ligand. All compounds were tested at a broad range of concentrations (10 pM to 10 μM) in duplicates. The test compounds (20 μl/well) were transferred into a 96 deep well plate (TreffLab), and 180 μl of HEPES-NaOH (20 mM, pH 7.4) containing MgCl2 (10 mM) and CaCl2 (2 mM) (binding buffer), 300 μl of the radioligand ^3[H]—(S)-4-[(ethyl-phenyl-amino)-methyl]-4,5-dihydro-oxazol-2-ylamine at a concentration of 3.3×Kd in nM and 500 μl of the membranes (resuspended at 50 μg protein per ml) added. The 96 deep well plates were incubated for 1 hr at 4° C. Incubations were terminated by rapid filtration through Unifilter-96 plates (Packard Instrument Company) and glass filters GF/C (Perkin Elmer) presoaked for 1 hr in polyethylenimine (0.3%) and washed 3 times with 1 ml of cold binding buffer. After addition of 45 μl of Microscint 40 (PerkinElmer) the Unifilter-96 plate was sealed and after 1 hr the […] counted using a TopCount Microplate Scintillation Counter (Packard Instrument Company).

The target of assay [2] is T2, mouse TAAR1 (Mus musculus, UniProt Q923Y8).
T2 construct: expressed in transfected cells; membrane preparation
T2 sequence (Q923Y8 whole entry): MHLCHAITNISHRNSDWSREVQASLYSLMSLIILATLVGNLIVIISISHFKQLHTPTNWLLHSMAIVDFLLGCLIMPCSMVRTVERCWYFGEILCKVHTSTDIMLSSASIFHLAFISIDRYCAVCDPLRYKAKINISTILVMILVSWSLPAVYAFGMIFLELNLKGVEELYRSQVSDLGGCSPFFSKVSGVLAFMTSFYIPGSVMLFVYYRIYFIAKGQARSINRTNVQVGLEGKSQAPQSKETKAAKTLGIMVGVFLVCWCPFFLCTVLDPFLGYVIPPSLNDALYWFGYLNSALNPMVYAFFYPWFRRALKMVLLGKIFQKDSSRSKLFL
The experiment in a line: Radioligand binding assay on mouse TAAR1. The following applies: for Ki: mouse TAAR1, HEK-293 membranes, first value of cell mouse/rat. The procedure: as §1, §2
Radioligand Binding Assay on Mouse TAAR1
as §3
HEK-293 cells stably expressing mouse TAAR1 were maintained at 37° C. and 5% CO2 in DMEM high glucose medium, containing fetal calf serum (10%, heat inactivated for 30 min at 56° C.), penicillin/streptomycin (1%), and 375 μg/ml geneticin (Gibco). Cells were released from culture flasks using trypsin/EDTA, harvested, washed twice with ice-cold PBS (without Ca^2+ and Mg^2+), pelleted at 1,000 rpm for 5 min at 4° C., frozen and stored at −80° C. Frozen pellets were suspended in 20 ml HEPES-NaOH (20 mM, pH 7.4) containing 10 mM EDTA and homogenized with a Polytron (PT 6000, Kinematica) at 14,000 rpm for 20 s. The homogenate was centrifuged at 48,000×g for 30 min at 4° C. Subsequently, the supernatant was removed and discarded, and the pellet resuspended in 20 ml HEPES-NaOH (20 mM, pH 7.4) containing 0.1 mM EDTA using the Polytron (20 s at 14,000 rpm). This procedure was repeated and the final pellet resuspended in HEPES-NaOH containing 0.1 mM EDTA and homogenized using the Polytron. Typically, aliquots of 2 ml membrane portions were stored at −80° C. With each new membrane batch the dissociation constant (Kd) was determined via a saturation curve. The TAAR1 radioligand ^3[H]—(S)-4-[(ethyl-phenyl-amino)-methyl]-4,5-dihydro-oxazol-2-ylamine (described in WO 2008/098857) was used at a concentration equal to the calculated Kd value, that was usually around 0.7 nM, resulting in the binding of approximately 0.5% of the radioligand and a specific binding representing approximately 70% of the total binding. Nonspecific binding was defined as the amount of ^3[H]—(S)-4-[(ethyl-phenyl-amino)-methyl]-4,5-dihydro-oxazol-2-ylamine bound in the presence of 10 μM unlabeled ligand. All compounds were tested at a broad range of concentrations (10 pM to 10 μM) in duplicates. The test compounds (20 μl/well) were transferred into a 96 deep well plate (TreffLab), and 180 μl of HEPES-NaOH (20 mM, pH 7.4) containing MgCl2 (10 mM) and CaCl2 (2 mM) (binding buffer), 300 μl of the radioligand ^3[H]—(S)-4-[(ethyl-phenyl-amino)-methyl]-4,5-dihydro-oxazol-2-ylamine at a concentration of 3.3×Kd in nM and 500 μl of the membranes (resuspended at 60 μg protein per ml) added. The 96 deep well plates were incubated for 1 hr at 4° C. Incubations were terminated by rapid filtration through Unifilter-96 plates (Packard Instrument Company) and glass filters GF/C (Perkin Elmer) presoaked for 1 hr in polyethylenimine (0.3%) and washed 3 times with 1 ml of cold binding buffer. […]

T1 sequence (Q923Y9 whole entry): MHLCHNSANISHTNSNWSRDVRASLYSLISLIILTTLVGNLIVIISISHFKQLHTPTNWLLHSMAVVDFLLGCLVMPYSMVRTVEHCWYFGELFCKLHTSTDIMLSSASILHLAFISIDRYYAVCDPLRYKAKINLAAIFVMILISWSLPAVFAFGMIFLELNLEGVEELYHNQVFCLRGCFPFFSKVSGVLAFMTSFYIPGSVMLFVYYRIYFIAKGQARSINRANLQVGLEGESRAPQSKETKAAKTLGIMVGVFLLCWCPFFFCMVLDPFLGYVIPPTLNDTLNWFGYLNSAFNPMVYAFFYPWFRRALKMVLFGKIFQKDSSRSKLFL

What is called Ki is a measure of affinity in units of concentration, obtained from inhibition or displacement. Read a high Ki as weaker binding. In the case of `O=C(Nc1ccc([C@H]2CNCCO2)cc1F)c1cnc(C2CC2)cn1` [Example 19, (S)-5-Cyclopropyl-N-(2-fluoro-4-(morpholin-2-yl)phenyl)pyrazine-2-carboxamide], the Ki in assay [1] came to 0.235 µM; in assay [2], 0.0061 µM.
In the same order, the values of `O=C(Nc1ccc([C@@H]2CNCCO2)cc1F)c1cnc(C2CC2)cn1` [Example 20, (R)-5-Cyclopropyl-N-(2-fluoro-4-(morpholin-2-yl)phenyl)pyrazine-2-carboxamide] are 0.0708 µM and 0.0099 µM.
For the molecule `CC(C)c1cncc(C(=O)Nc2ccc([C@H]3CNCCO3)c(F)c2)n1` [Example 21, 6-Isopropyl-pyrazine-2-carboxylic acid ((S)-3-fluoro-4-morpholin-2-yl-phenyl)-amide], the Ki amounted to 0.0849 µM in assay [1] and 0.0181 µM in assay [2].
In the same order, the values of `CC(C)c1cncc(C(=O)Nc2ccc([C@H]3CNCCO3)cc2F)n1` [Example 22, 6-Isopropyl-pyrazine-2-carboxylic acid ((S)-2-fluoro-4-morpholin-2-yl-phenyl)-amide] are 0.391 µM and 0.0522 µM.
In the same order, the values of `O=C(Nc1ccc([C@H]2CNCCO2)cc1F)c1cnc(OCC(F)(F)F)cn1` [Example 23, (S)—N-(2-Fluoro-4-(morpholin-2-yl)phenyl)-5-(2,2,2-trifluoroethoxy)pyrazine-2-carboxamide] are 0.0881 µM and 0.0046 µM.
The matching figures for `O=C(Nc1ccc([C@H]2CNCCO2)c(F)c1)c1cnc(OCC(F)(F)F)cn1` [Example 24, (S)—N-(3-Fluoro-4-(morpholin-2-yl)phenyl)-5-(2,2,2-trifluoroethoxy)pyrazine-2-carboxamide]: 0.0202 µM and 0.0042 µM.
Turning to `O=C(Nc1ccc([C@H]2CNCCO2)cc1F)c1cncc(OCC(F)(F)F)n1` [Example 25, (S)—N-(2-Fluoro-4-(morpholin-2-yl)phenyl)-6-(2,2,2-trifluoroethoxy)pyrazine-2-carboxamide], the Ki in assay [1] was 0.0122 µM; in assay [2], 0.044 µM.
In the same order, the values of `O=C(Nc1ccc([C@H]2CNCCO2)c(F)c1)c1cncc(OCC(F)(F)F)n1` [Example 26, (S)—N-(3-Fluoro-4-(morpholin-2-yl)phenyl)-6-(2,2,2-trifluoroethoxy)pyrazine-2-carboxamide] are 0.0032 µM and 0.0167 µM.
In the same order, the values of `O=C(Nc1ccc([C@@H]2CNCCO2)cc1F)c1cnc(OCC(F)(F)F)cn1` [Example 27, (R)—N-(2-Fluoro-4-(morpholin-2-yl)phenyl)-5-(2,2,2-trifluoroethoxy)pyrazine-2-carboxamide] are 0.0183 µM and 0.0059 µM.
The matching figures for `O=C(Nc1ccc([C@@H]2CNCCO2)c(F)c1)c1cnc(OCC(F)(F)F)cn1` [Example 28, (R)—N-(3-Fluoro-4-(morpholin-2-yl)phenyl)-5-(2,2,2-trifluoroethoxy)pyrazine-2-carboxamide]: 0.0037 µM and 0.0053 µM.
In the case of `O=C(Nc1ccc([C@@H]2CNCCO2)cc1F)c1cncc(OCC(F)(F)F)n1` [Example 29, (R)—N-(2-Fluoro-4-(morpholin-2-yl)phenyl)-6-(2,2,2-trifluoroethoxy)pyrazine-2-carboxamide], the Ki in assay [1] is 0.0053 µM; in assay [2], 0.0447 µM.
In the same order, the values of `O=C(Nc1ccc([C@@H]2CNCCO2)c(F)c1)c1cncc(OCC(F)(F)F)n1` [Example 30, (R)—N-(3-Fluoro-4-(morpholin-2-yl)phenyl)-6-(2,2,2-trifluoroethoxy)pyrazine-2-carboxamide] are 0.0035 µM and 0.0292 µM.
One may read the Kd as a measure of binding affinity in units of concentration. On to `CCN(C[C@H]1COC(N)=N1)c1ccccc1` [^3[H]—(S)-4-[(ethyl-phenyl-amino)-methyl]-4,5-dihydro-oxazol-2-ylamine, reference compound], for which the Kd in assay [1] (rat TAAR1 membranes, saturation curve, usual value, read-out: dissociation constant (Kd) of the radioligand) is about 0.0023 µM; in assay [2] (mouse TAAR1 membranes, saturation curve, usual value, read-out: dissociation constant (Kd) of the radioligand), about 0.0007 µM.
